Laboratory results reported in patent publication US20240166639A1, “POTENT AND SELECTIVE COMPOUNDS AS SEROTONIN 1B RECEPTOR MODULATORS” (LEUKOS BIOTECH, S.L., priority 2020, published 2024).
pEC50, pKi: −log10 of the molar value. Structures can show the parent of a compound that is named as a salt.

Experiments:
MonoMac-1 = experiment: Cell viability assay, AML cell line MonoMac-1; type: cell-based; conditions: 48 h treatment, live cells by flow cytometry
Description: (§1) 0.15×10^6 AML cell lines (HL-60 or MonoMac-1) per mL were cultured in completed RPMI medium, supplemented with 10% Fetal bovine serum (FBS). Compounds were added to the medium at the concentration indicated (0.1, 1 and 10 μM), while controls were treated with equivalent concentration of vehicle (DMSO). Primary validation screenings were analyzed after 72 h of treatment, EC50 was determined upon 48 h treatments. Cells were stained with the live-dead discrimination dye 7-aminoactinomycin D (7-AAD) and Hoechst 33342 and acquired in a flow cytometer, with a volumetric counting. Live cells were discriminated based on a discrete FSC-SSC profile, 7-AAD negativity and dim positivity to Hoechst 33342. EC50 was calculated with the Prism GraphPad software.

human 5-HT1B receptor = human 5-HT1B receptor (Homo sapiens (Human), UniProt P28222); experiment: Competition binding in human 5-HT1B receptor; conditions: [3H]-GR125743, Hela-5-HT1B membranes; read-out: h5-HT1B Ki
Description: Serotonin 5-HT1B receptor competition binding experiments were carried out in a polypropylene 96-well plate. In each well was incubated 5 μg of membranes from Hela-5-HT1B cell line prepared in the laboratory (Lot: A001/14-11-2011, protein concentration=3179 μg/ml), 1.5 nM [^3H]-GR125743 ([…], 0.1 mCi/ml, Perkin Elmer NET1172100UC) and compounds studied and standard. Non-specific binding was determined in the presence of GR55562 10 μM (TOCRIS 1054). The reaction mixture (Vt: 250 μl/well) was incubated at 25° C. for 90 min, 200 μL was transfered to GF/C 96-well plate (Millipore, Madrid, Spain) pretreated with 0.5% of PEI and treated with binding buffer (Tris-HCl 50 mM, EDTA 1 mM, MgCl2 10 mM, pH=7.4), after was filtered and washed four times with 250 μl wash buffer (Tris-HCl 50 mM, pH=7.4), before measuring in a microplate beta scintillation counter (Microbeta Trilux, PerkinElmer, Madrid, Spain). […] From the IC50 the Ki is calculated according to the following formula: […]
(§2) Being: • IC50: inhibitory concentration, • D: real concentration of radioligand and • Kd: dissociation constant (affinity of radioligand to the receptor).

HL-60 = experiment: Cell viability assay, AML cell line HL-60; type: cell-based; conditions: 48 h treatment, live cells by flow cytometry
Description: as §1

human 5-HT2A receptor = human 5-HT2A receptor (Homo sapiens (Human), UniProt P28223); experiment: Competition binding in human 5-HT2A receptor; conditions: [3H]-Ketanserin, CHO-5-HT2A membranes; read-out: h5-HT2A Ki
Description: Serotonin 5-HT2A receptor competition binding experiments were carried out in a polypropilene 96-well plate. In each well was incubated 80 μg of membranes from CHO-5-HT2A cell line prepared in the laboratory (protein concentration=4337 μg/ml), 1 nM [^3H]-Ketanserin (47.3 Ci/mmol, 1 mCi/ml, Perkin Elmer NET791250UC) and compounds studied and standard. Non-specific binding was determined in the presence of Methysergide 1 μM (Sigma M137). The reaction mixture (Vt: 250 μl/well) was incubated at 37° C. for 30 min, 200 μL was transfered to GF/B 96-well plate (Millipore, Madrid, Spain) pretreated with 0.5% of PEI and treated with binding buffer (Tris-HCl 50 mM, pH=7.4), after was filtered and washed six times with 250 μl wash buffer (Tris-HCl 50 mM, pH=6.6), before measuring in a microplate beta scintillation counter (Microbeta Trilux, PerkinElmer, Madrid, Spain).
The raw radioactivity data is adjusted to a logistic regression of 4 parameters using GraphPad Prism software, from the specific junction the value of IC50 is obtained. From the IC50 the Ki is calculated according to the following formula: […]
as §2

[1] = Healthy blood cells viability assay; type: cell-based; conditions: 48 h treatment, healthy peripheral blood mononuclear cells; read-out: EC50 (uM), cytotoxic capacity on healthy cells
Description: (§3) 0.5×10^6 peripheral blood-mononuclear blood cells per mL were cultured in completed RPM medium, supplemented with 10% FBS. Compounds were added to the medium at 0.5/1/5/10/50 μM, while controls were treated with equivalent concentration of vehicle (DMSO). Upon 48 h treatment, cells were stained with the live-dead discrimination dye 7-AAD and Hoechst 33342, the pan-hernatopoietic surface marker CD45, and acquired in a flow cytometer, with a volumetric counting. Live cells were discriminated based on a discrete FSC-SSC profile, 7-AAD negativity, dim positivity to Hoechst 33342 and CD45 positivity. EC50 was calculated with the Prism GraphPad software.

[2] = system: peripheral blood-mononuclear blood cells; experiment: Healthy blood cells viability assay; type: cell-based; conditions: 48 h treatment, read-out: EC50 (uM), cytotoxic capacity on healthy cells
Description: as §3

[3] = system: human acute myeloid leukemia (AML) cells; conditions: every 2 days for 14 days, apomorphine 5 mg/kg, methiothepin 0.1 mg/kg, cited from earlier work; for AML burden in bone marrow (BM): vs vehicle

human 5-HT1B receptor, sequence (P28222 whole entry): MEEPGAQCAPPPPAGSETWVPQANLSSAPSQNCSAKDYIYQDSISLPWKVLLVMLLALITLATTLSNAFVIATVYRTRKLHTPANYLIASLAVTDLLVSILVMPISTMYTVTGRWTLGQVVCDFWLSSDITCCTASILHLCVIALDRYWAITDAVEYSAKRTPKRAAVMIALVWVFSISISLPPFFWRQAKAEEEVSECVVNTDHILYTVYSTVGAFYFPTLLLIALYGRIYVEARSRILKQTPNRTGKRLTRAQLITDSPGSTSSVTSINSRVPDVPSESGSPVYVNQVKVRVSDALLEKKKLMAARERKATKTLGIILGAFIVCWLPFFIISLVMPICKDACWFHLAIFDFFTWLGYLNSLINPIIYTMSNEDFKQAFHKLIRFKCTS
human 5-HT2A receptor, sequence (P28223 whole entry): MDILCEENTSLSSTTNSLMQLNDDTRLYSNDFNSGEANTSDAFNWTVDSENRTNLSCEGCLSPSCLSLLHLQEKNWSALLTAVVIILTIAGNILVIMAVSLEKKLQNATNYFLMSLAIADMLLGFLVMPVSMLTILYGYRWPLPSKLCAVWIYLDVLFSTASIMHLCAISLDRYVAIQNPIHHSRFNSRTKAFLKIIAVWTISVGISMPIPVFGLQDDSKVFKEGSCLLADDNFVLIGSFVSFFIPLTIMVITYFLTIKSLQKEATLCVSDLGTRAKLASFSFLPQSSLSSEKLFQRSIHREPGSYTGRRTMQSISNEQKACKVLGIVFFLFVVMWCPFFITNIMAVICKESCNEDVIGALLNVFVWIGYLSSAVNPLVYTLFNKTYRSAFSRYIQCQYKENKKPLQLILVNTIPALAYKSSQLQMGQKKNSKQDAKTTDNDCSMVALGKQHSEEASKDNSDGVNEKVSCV

SMILES: Cc1nc(-c2ccc(-c3ccc(C(=O)Nc4cc(OCCN(C)C)c(C#N)cn4)cc3)c(Cl)c2)no1 [Example 23, 2′-chloro-N-(5-cyano-4-(2-(dimethylamino)ethoxy)pyridin-2-yl)-4′-(5-methyl-1,2,4-oxadiazol-3-yl)-[1,1′-biphenyl]-4-carboxamide]
- pEC50 (MonoMac-1; Mono-Mac-1): 6.27
- pKi (human 5-HT1B receptor): 8.10
- pEC50 (HL-60; Homo sapiens, HL-60): 6.01
- pKi (human 5-HT2A receptor): 5.52
- EC50 at 48 h [1]: > 50 µM

SMILES: COc1ccc(NC(=O)c2ccc(-c3ccc(-c4noc(C)n4)cc3C)cc2)cc1OCCN(C)C [SB41, N-[3-[3-(Dimethylamino)ethoxy]-4-methoxyphenyl]-2′-methyl-4′-(5-methyl-1,2,4-oxadiazol-3-yl)-[1,1′-biphenyl]-4-carboxamide hydrochloride, reference compound]
- pEC50 (MonoMac-1): 5.61
- pKi (human 5-HT1B receptor): 9.22
- pEC50 (HL-60): 5.14
- pKi (human 5-HT2A receptor): 6.84
- EC50 [2]: 12.5 µM

SMILES: Cc1nc(-c2ccc(-c3ccc(C(=O)Nc4ccc(C#N)c(OCCN(C)C)c4)cn3)c(C3CC3)c2)no1 [Example 7, N-(4-cyano-3-(2-(dimethylamino)ethoxy)phenyl)-6-(2-cyclopropyl-4-(5-methyl-1,2,4-oxadiazol-3-yl)phenyl)nicotinamide]
- pEC50 (MonoMac-1; Mono-Mac-1): 6.10
- pKi (human 5-HT1B receptor): 8.01
- pEC50 (HL-60; Homo sapiens, HL-60): 6.19
- pKi (human 5-HT2A receptor): 5.60
- EC50 at 48 h [1]: 50 µM

SMILES: Cc1nc(-c2ccc(-c3ccc(C(=O)Nc4ncc(C#N)c(OCCN(C)C)n4)cc3)c(C3CC3)c2)no1 [Example 36, N-(5-cyano-4-(2-(dimethylamino)ethoxy)pyrimidin-2-yl)-2′-cyclopropyl-4′-(5-methyl-1,2,4-oxadiazol-3-yl)-[1,1′-biphenyl]-4-carboxamide]
- pEC50 (MonoMac-1; Mono-Mac-1): 5.13
- pEC50 (HL-60; Homo sapiens, HL-60): 5.23
- EC50 at 48 h [1]: 25 µM

SMILES: Cc1nc(-c2ccc(-c3ccc(NC(=O)c4ccc(Br)c(OCCN(C)C)c4)cn3)c(F)c2)no1 [Example 65, 4-bromo-3-(2-(dimethylamino)ethoxy)-N-(6-(2-fluoro-4-(5-methyl-1,2,4-oxadiazol-3-yl)phenyl)pyridin-3-yl)benzamide]
- pEC50 (MonoMac-1; Mono-Mac-1): 5.88
- pKi (human 5-HT1B receptor): 9.30
- pEC50 (HL-60; Homo sapiens, HL-60): 6.03
- pKi (human 5-HT2A receptor): 6.00

SMILES: Cc1nc(-c2ccc(-c3ccc(C(=O)Nc4cc(OCCN(C)C)c(Br)cn4)cn3)c(C3CC3)c2)no1 [Example 39, N-(5-bromo-4-(2-(dimethylamino)ethoxy)pyridin-2-yl)-6-(2-cyclopropyl-4-(5-methyl-1,2,4-oxadiazol-3-yl)phenyl)nicotinamide]
- pEC50 (MonoMac-1; Mono-Mac-1): 5.59
- pEC50 (HL-60; Homo sapiens, HL-60): 5.46
- EC50 at 48 h [1]: 50 µM

SMILES: CSc1ccc2c(c1)C(N1CCN(C)CC1)Cc1ccccc1S2 (stereo not drawn) [methiothepin]
- clonogenic capacity of engrafted AML cells [3]: impaired
- AML burden in bone marrow (BM) [3]: significant reduction

SMILES: COc1cc(-c2noc(C)n2)ccc1-c1ccc(C(=O)Nc2cc(OCCN(C)C)c(Br)cn2)cn1 [Example 43, N-(5-bromo-4-(2-(dimethylamino)ethoxy)pyridin-2-yl)-6-(2-methoxy-4-(5-methyl-1,2,4-oxadiazol-3-yl)phenyl)nicotinamide]
- pEC50 (MonoMac-1; Mono-Mac-1): 5.72
- pKi (human 5-HT1B receptor): 8.82
- pEC50 (HL-60; Homo sapiens, HL-60): 5.60
- pKi (human 5-HT2A receptor): 5.70

SMILES: Cc1nc(-c2ccc(-c3ccc(C(=O)Nc4ncc(C#N)c(OCCN(C)C)n4)cc3)c(Cl)c2)no1 [Example 38, 2′-chloro-N-(5-cyano-4-(2-(dimethylamino)ethoxy)pyrimidin-2-yl)-4′-(5-methyl-1,2,4-oxadiazol-3-yl)-[1,1′-biphenyl]-4-carboxamide]
- pKi (human 5-HT1B receptor): 7.78
- pKi (human 5-HT2A receptor): < 5.00
- EC50 at 48 h [1]: 50 µM

SMILES: Cc1nc(-c2ccc(-c3ccc(C(=O)Nc4cc(OCCN(C)C)c(C#N)cn4)cn3)c(Cl)c2)no1 [Example 47, 6-(2-chloro-4-(5-methyl-1,2,4-oxadiazol-3-yl)phenyl)-N-(5-cyano-4-(2 (dimethylamino)ethoxy)pyridin-2-yl)nicotinamide]
- pEC50 (MonoMac-1; Mono-Mac-1): 5.39
- pKi (human 5-HT1B receptor): 8.01
- pEC50 (HL-60; Homo sapiens, HL-60): 5.18
- pKi (human 5-HT2A receptor): < 5.00
- EC50 at 48 h [1]: 25 µM

SMILES: COc1cc(-c2noc(C)n2)ccc1-c1ccc(C(=O)Nc2cc(OCCN(C)C)c(C#N)cn2)cn1 [Example 49, N-(5-cyano-4-(2-(dimethyiamino)ethoxy)pyridin-2-yl)-6-(2-methoxy-4-(5-methyl-1,2,4-oxadiazol-3-yl)phenyl)nicotinamide]
- pEC50 (MonoMac-1): 5.38
- pKi (human 5-HT1B receptor): 6.90
- pEC50 (HL-60): 5.94
- pKi (human 5-HT2A receptor): < 5.00

SMILES: CN1CCc2cccc3c2[C@H]1Cc1ccc(O)c(O)c1-3 [Apomorphine, reference compound]
- pEC50 (MonoMac-1; Mono-Mac-1): 4.93
- pKi (human 5-HT1B receptor): 5.76
- pEC50 (HL-60; Homo sapiens, HL-60): 5.31
- pKi (human 5-HT2A receptor): 8.16
- clonogenic capacity of engrafted AML cells [3]: impaired
- AML burden in bone marrow (BM) [3]: significant reduction

SMILES: Cc1nc(-c2ccc(-c3ccc(C(=O)Nc4cc(OCCN(C)C)c(C#N)cn4)cc3)c(C3CC3)c2)no1 [Example 21, N-(5-cyano-4-(2-(dimethylamino)ethoxy)pyridin-2-yl)-2′-cyclopropyl-4′-(5-methyl-1,2,4-oxadiazol-3-yl)-[1,1′-biphenyl]-4-carboxamide]
- pEC50 (MonoMac-1; Mono-Mac-1): 5.48
- pKi (human 5-HT1B receptor): 8.20
- pEC50 (HL-60; Homo sapiens, HL-60): 5.44
- pKi (human 5-HT2A receptor): 5.46
- EC50 at 48 h [1]: > 50 µM

SMILES: Cc1nc(-c2ccc(-c3ccc(C(=O)Nc4ccc(C#N)c(OCCN(C)C)n4)cn3)c(C3CC3)c2)no1 [Example 54, N-(5-cyano-6-(2-(dimethylamino)ethoxy)pyridin-2-yl)-6-(2-cyclopropyl-4-(5-methyl-1,2,4-oxadiazol-3-yl)phenyl)nicotinamide]
- pEC50 (MonoMac-1; Mono-Mac-1): 5.98
- pKi (human 5-HT1B receptor): 7.32
- pEC50 (HL-60; Homo sapiens, HL-60): 5.97
- pKi (human 5-HT2A receptor): < 5.00

SMILES: Cc1nc(-c2ccc(-c3ccc(C(=O)Nc4cc(OCCN(C)C)c(C#N)cn4)cn3)c(C3CC3)c2)no1 [Example 45, N-(5-cyano-4-(2-(dimethylamino)ethoxy)pyridin-2-yl)-6-(2-cyclopropyl-4-(5-methyl-1,2,4-oxadiazol-3-yl)phenyl)nicotinamide]
- pEC50 (MonoMac-1; Mono-Mac-1): 5.94
- pKi (human 5-HT1B receptor): 7.59
- pEC50 (HL-60; Homo sapiens, HL-60): 5.75
- pKi (human 5-HT2A receptor): < 5.00
- EC50 at 48 h [1]: > 50 µM
